The results in this text go back to US7842324B2 (Senomyx, Inc., priority 2005, dated 2010).

The target in this assay is T1, hT1R2/hT1R3 sweet receptor expressed in HEK293 cell line (Homo sapiens, UniProt Q7RTX0+Q8TE23).
T1 construct: expressed in transfected cells; host or cells: HEK293 derivative stably expressing Gα15 and hT1R2/hT1R3, clone S-9
T1 sequence (Q8TE23 20-839): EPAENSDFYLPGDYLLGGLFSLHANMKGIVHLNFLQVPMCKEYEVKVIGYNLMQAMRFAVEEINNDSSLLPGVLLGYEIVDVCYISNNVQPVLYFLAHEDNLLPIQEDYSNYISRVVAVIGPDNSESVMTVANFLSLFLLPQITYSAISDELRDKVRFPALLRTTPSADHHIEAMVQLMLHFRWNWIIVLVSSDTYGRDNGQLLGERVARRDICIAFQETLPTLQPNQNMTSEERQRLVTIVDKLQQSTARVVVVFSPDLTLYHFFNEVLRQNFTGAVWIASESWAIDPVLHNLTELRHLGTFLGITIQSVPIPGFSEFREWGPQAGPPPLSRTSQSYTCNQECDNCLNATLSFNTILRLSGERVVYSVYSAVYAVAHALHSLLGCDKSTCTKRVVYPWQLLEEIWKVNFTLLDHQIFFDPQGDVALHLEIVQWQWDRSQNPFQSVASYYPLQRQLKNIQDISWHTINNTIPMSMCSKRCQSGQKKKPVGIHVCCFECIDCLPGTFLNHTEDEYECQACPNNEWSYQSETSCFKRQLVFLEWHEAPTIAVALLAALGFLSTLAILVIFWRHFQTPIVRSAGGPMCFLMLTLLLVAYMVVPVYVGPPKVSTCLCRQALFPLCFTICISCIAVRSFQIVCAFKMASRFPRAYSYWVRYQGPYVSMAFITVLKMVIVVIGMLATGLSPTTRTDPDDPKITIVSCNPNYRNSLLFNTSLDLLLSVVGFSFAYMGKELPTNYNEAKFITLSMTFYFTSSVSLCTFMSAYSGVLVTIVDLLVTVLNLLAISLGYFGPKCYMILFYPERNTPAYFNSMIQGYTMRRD
T1 sequence (Q7RTX0 21-852): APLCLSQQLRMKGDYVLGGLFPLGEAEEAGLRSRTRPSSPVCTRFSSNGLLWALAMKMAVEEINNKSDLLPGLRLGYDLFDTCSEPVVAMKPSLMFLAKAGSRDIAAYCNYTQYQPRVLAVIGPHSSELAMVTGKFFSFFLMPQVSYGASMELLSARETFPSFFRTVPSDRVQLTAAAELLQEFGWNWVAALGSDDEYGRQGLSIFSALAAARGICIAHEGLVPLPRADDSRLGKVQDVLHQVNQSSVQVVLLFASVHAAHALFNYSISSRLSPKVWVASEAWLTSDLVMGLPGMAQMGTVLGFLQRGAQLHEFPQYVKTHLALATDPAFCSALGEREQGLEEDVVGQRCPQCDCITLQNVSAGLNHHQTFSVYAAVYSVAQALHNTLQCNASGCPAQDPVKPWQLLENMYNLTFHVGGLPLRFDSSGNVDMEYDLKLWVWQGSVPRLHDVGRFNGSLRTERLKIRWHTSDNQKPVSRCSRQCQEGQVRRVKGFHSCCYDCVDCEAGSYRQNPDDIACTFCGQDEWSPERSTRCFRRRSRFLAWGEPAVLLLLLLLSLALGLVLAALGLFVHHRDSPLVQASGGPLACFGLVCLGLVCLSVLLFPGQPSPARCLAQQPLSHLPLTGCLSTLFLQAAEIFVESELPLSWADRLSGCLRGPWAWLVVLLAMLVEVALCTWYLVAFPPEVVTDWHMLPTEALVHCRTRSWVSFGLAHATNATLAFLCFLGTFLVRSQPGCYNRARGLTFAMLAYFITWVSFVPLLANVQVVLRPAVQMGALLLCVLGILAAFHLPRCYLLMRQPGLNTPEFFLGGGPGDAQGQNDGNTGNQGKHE
Nature of the assay: In vitro hT1R2/hT1R3-HEK293 taste receptor activation assay (FLIPR). To be noted: Table A; read-out: SWEET EC50. In kind it is cell-based. In a few lines:
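HEK293 cells stably expressing Gα15 and hT1R2/hT1R3 were loaded with Fluo-3AM (4 μM, 1 h, room temperature), then stimulated at room temperature in D-PBS. Peak fluorescence (ex 480/em 535 nm) was normalized to basal. Dose-responses were run in duplicate over 60 nM–30 μM, normalized to 400 mM D-fructose, and EC50 fitted by free-Hill non-linear regression.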

As to `COC(=O)c1cncc(-c2ccc(C(C)(C)C(=O)NCC(C)C)cc2)c1` [Compound A73], the EC50 was found to be 0.54 µM.

In the case of `CC[C@@H](CO)NC(=O)C(C)(C)c1ccc(-c2cncc(C#N)c2)cc1` [Compound A75], the half-maximal effective concentration (EC50) came out at 0.68 µM.

`COc1cc(C(C)(C)C(=O)NCC(C)C)ccc1-c1ccccc1` [Compound A76]: the EC50 is 0.96 µM.

For the compound `CCC(CO)NC(=O)C(C)(C)c1ccc(-c2ccoc2)cc1` (centres unmarked) [Compound A77], the EC50 was 1.25 µM.

As to `CCCNC(=O)C(C)(C)c1ccc(-c2cccc(COC)c2)cc1` [Compound A78], the EC50 was determined as 0.67 µM.

With `CC(C)CNC(=O)C(C)(C)c1ccc(-c2cccc3c2COCOC3)cc1` [Compound A79], the EC50 was found to be 0.67 µM.

Regarding `CC(C)CNC(=O)C(C)(C)c1ccc(-c2cccc(C#N)c2CO)cc1` [Compound A80], the 50% effective concentration (EC50) stood at 0.67 µM.

As for `CC(C)CNC(=O)C(C)(C)c1ccc(-c2cccc(C#N)n2)cc1` [Compound A81], the EC50 was 0.67 µM.

In the case of `CC[C@H](C)CNC(=O)C(C)(C)c1ccc(-c2cncc(C#N)n2)cc1` [Compound A82], the EC50 was determined as 0.03 µM.

On to `CCC(C)CNC(=O)C(C)(C)c1ccc(-c2cncc(C#N)c2)cc1` (centres unmarked) [Compound A83], for which the EC50 worked out at 0.11 µM.

With `CC(C)(C(=O)NCC1CC1)c1ccc(-c2cncc(C#N)c2)cc1` [Compound A84], the half-maximal effective concentration (EC50) was 0.11 µM.

In the case of `CC[C@@H](C)NC(=O)C(C)(C)c1ccc(-c2cncc(C#N)c2)cc1` [Compound A85], the EC50 worked out at 0.15 µM.

For `CC(C)(C(=O)NC1CCCCC1)c1ccc(-c2cncc(C#N)c2)cc1` [Compound A86], the EC50 worked out at 0.18 µM.

On to `CC(C)CNC(=O)C(C)(C)c1ccc(-c2cncc(OC(C)C)c2)cc1` [Compound A87], for which the EC50 is 0.21 µM.

In the case of `COc1ccc([C@@H](C)NC(=O)C(C)(C)c2ccc(-c3cncnc3)cc2)cc1` [Compound A88], the concentration giving a half-maximal response (EC50) is 0.37 µM.

As to `CC(C)(C(=O)NC1CCCCC1)c1ccc(-c2cncnc2)cc1` [Compound A89], the EC50 was 0.41 µM.

As for `CCCNC(=O)C(C)(C)c1ccc(-c2cncc(C#N)c2)cc1` [Compound A90], the EC50 was 0.48 µM.

Consider `CCC(CC)CNC(=O)C(C)(C)c1ccc(-c2cncc(C#N)c2)cc1` [Compound A91], for which the concentration giving a half-maximal response (EC50) was found to be 0.62 µM.

Regarding `CC(C)CNC(=O)C(C)(C)c1ccc(-c2cc(CO)ccc2C=O)cc1` [Compound A92], the concentration for a half-maximal effect (EC50) was found to be 0.63 µM.

As to `CCC(C(=O)NCC(C)C)c1ccc(-c2ccccc2)cc1` (centres unmarked) [Compound A93], the EC50 came out at 0.9 µM.
